Experimental data published in US8470344B2, “Aqueous dispersions and solutions of difficult to dissolve materials and methods of their preparation” (Teva Pharmaceutical Industries Ltd., priority 2005, dated 2013).

What was measured:
[1] = Comparative example: direct dissolution of latanoprost in water containing NaH2PO4 with stirring; format: physicochemical
Protocol: Latanoprost (5.621 mg) was dissolved in water (100 mL), containing NaH2PO4 (0.463 g). The mixture was stirred for 120 minutes.
The mixture from Example 3 was heated at 40° C. with stirring for 120 minutes. A solution of Latanoprost with concentration 0.00407% (w/v, or 81.4% of target concentration 0.005%) was obtained.

[2] = Dissolving or dispersing the compound-covered substrate matrix (dry powder) in water; format: physicochemical
Protocol: 1 mL of the Latanoprost solution (6.4 mg/mL) in ethanol was added to a mixture of NaH2PO4*H2O (0.553 g) and Na2HPO4 (0.564 g). The resulting mixture was dried under reduced pressure at room temperature to yield dry powder particles having latanoprost on the surface thereof. The dry powder was dissolved in water (120 mL) to form a solution. Benzalkonium chloride was added to the solution.
Latanoprost (17.97 mg) was dissolved in acetonitrile (5 mL). 1.5 mL of this solution were added to mixture of NaH2PO4 (0.464 g) and Na2HPO4 (0.469 g). The resulting mixture was dried under reduced pressure to obtain a dry powder. 50 mL of water were added to dry powder and stirred during 5 minutes. A fine suspension of Latanoprost with concentration about 0.01% (w/v) was obtained. 50 mL of water, containing Benzalkonium chloride and sodium chloride, were added to this suspension and stirred. The obtained clear solution of Latanoprost had concentration 0.005% (w/v).
Dexamethasone (104.05 mg) was dissolved in acetonitrile (5 mL). 1 mL of this solution was added to 545 mg of NaH2PO4*H2O and the mixture was dried in a reduced pressure for 15 hours. 20 mL of water were added and mixture was stirred. A fine suspension of dexamethasone (concentration about 0.1% w/v) was obtained.

Latanoprost concentration of aqueous solution ([1]; Example 3 (comparative): 5.621 mg in water (100 mL) with NaH2PO4, stirred 120 minutes): 0.00015 % (w/v) | percent of target concentration of 0.005% ([1]; Example 3 (comparative): stirred 120 minutes, no heating): 30% | percent of target concentration 0.005% ([1]; Example 4 (comparative): heated at 40° C. with stirring for 120 minutes): 81.4% | concentration of solution of Latanoprost ([1]; Example 4 (comparative): mixture from Example 3 heated at 40° C. with stirring for 120 minutes): 0.00407 % (w/v) | content of Latanoprost in resultant solution ([2]; Example 1: ethanol solution dried on NaH2PO4*H2O/Na2HPO4, powder dissolved in water (120 mL), benzalkonium chloride added, room temperature): 0.005 % (w/v) | appearance and stability of resultant solution ([2]; Example 1: powder dissolved in water (120 mL), benzalkonium chloride added): transparent and stable | concentration of fine suspension of Latanoprost ([2]; Example 2: acetonitrile solution dried on NaH2PO4/Na2HPO4, 50 mL water, stirred 5 minutes): about 0.01 % (w/v) | concentration of obtained clear solution of Latanoprost ([2]; Example 2: after further 50 mL water containing benzalkonium chloride and sodium chloride): 0.005 % (w/v)
SMILES: CC(C)OC(=O)CCC/C=C\C[C@@H]1[C@@H](CC[C@@H](O)CCc2ccccc2)[C@H](O)C[C@@H]1O [Latanoprost, Isopropyl (Z)-7-{(1R,2R,3R,5S)-3,5-dihydroxy-2-[3(R)-(3-hydroxyl-5-phenyl)pentyl]cyclopentyl}-5-heptenoate]
